Columns and labels:
SHP/Rgg1358 system = assay: Maximum luciferase activity of strain TIL1566 with different synthetic SHPs; format: cell-based, S. thermophilus; conditions: strain TIL1566 in CDM, 37° C., synthetic peptide 1 μM; mean of three independent experiments
Procedure: For the assessment of the maximum luciferase activity reached with the addition of different SHPs in the culture media of strain TIL1566 (blp::rgg1358-Pster1357-luxAB-aphA3 ΔpptAB::erm), cells were grown overday at 37° C. in CDM. These cultures were diluted to a final OD600 of 0.05 in 1 ml of CDM. Synthetic SHP peptides were added in the culture medium at a final concentration of 1 μM. 250 μl of these diluted cultures were transferred to the wells of a covered sterile white microplate with a transparent bottom. The cultures' OD600 and luminescence values were monitored at 37° C. every 10 minutes in an Infinite M200 spectroluminometer, as previously described (Fontaine et al., J. Bacteriol. 192:1444-1454, 2010). The maximum of luminescence was recovered from each kinetic. The maximum activity was reported in Relative Luminescent Units divided by the OD600 (RLU/OD600) and measured as the mean of three independent experiments.
In order to assess their efficiency, we used their synthetic mature form to record the maximum luciferase activity of strain TIL1566 (blp::rgg1358-Pster1357-luxAB ΔpptAB::erm) in CDM and compared it to the one obtained with SHP1358. We chose the mature SHPs of strain CNRZ1066 similar to the mature SHP1358 (EGIIVIVVG, SEQ ID NO: 24): the SHP associated to Rgg STR_RS07375 (EGIIVILVG, SEQ ID NO: 25), the SHP associated to Rgg STR_RS09145 (EGIIVIGVG, SEQ ID NO: 26) and the SHP associated to Rgg STR_RS04530 (ESIIVIAVG, SEQ ID NO: 27). The most efficient peptide was ESIIVIAVG (SEQ ID NO: 27) with a maximum relative luciferase activity that reached 95% of the one obtained with SHP1358. The two other peptides were less efficient with percentage of 86% with EGIIVILVG (SEQ ID NO: 25) and only 27% with EGIIVIGVG (SEQ ID NO: 26).

elafin = assay: Western blot detection of secreted elafin in culture supernatants; format: cell-based, human
Description: FIG. 3. Production of elafin detected by Western blot in the supernatant of different S. thermophilus strains. (A) At OD600 0.2 and 0.5 for strain TIL1536 (ΔhtrA::aphA3 ΔsepM::spec), TIL1551 (blp::shp-rgg1358-Pster1357-elafin-P32 cm ΔhtrA::aphA3 ΔywdF::spec) and TIL1552 (blp::rgg1358-Pster1357-elafin-P32 cm ΔhtrA::aphA3 ΔywdF::spec). (B) At OD600 1 and 2 for strain TIL1536, TIL1551 and TIL1552. (C) At OD600 0.2, 0.5 and 1 for strain TIL1567 (blp::rgg1358-Pster1357-luxAB-aphA3 ΔhtrA::aphA3 ΔywdF::spec ΔpptAB::erm). Purified elafin was used as a positive control and strain TIL1536 as negative control (elafin non-producing strain). Induction of the production of elafin with the addition of synthetic SHP in the culture medium is mentioned with: +SHP.
For the preparation of the samples, derivatives of strain CNRZ1066 were grown in CDM at 42° C. When necessary, induction was performed with the addition of SHP peptide (EGIIVIVVG, SEQ ID NO: 24) at a final concentration of 1 μM for strain TIL1552 and 0.5 µM for strain TIL1567 in the growth medium at OD600 of 0.2. When the cultures reached the desired OD600, 10 ml were centrifuged at 3200 g for 10 min at room temperature. […]
For the Western blot experiments, 10 μl of the samples were diluted in Laemmli Buffer (4×) and heated to 95° C. for 5 minutes. […] Detection was finally recorded using a Chemidoc (Biorad).

Row | Sequence | maximum relative luciferase activity, percentage of the one obtained with SHP1358 (SHP/Rgg1358 system) | elafin level in induced culture versus uninduced culture (elafin; strain 1552, SHP 1 μM added at OD600 0.2, sampled at OD600 0.5) | production of elafin in the extracellular medium on addition of SHP (elafin; strain TIL1567 (ΔpptAB), SHP 0.5 μM added at OD600 0.2, detected at OD600 0.5 and 1)
1 | EGIIVIGVG (listed as Streptococcus thermophilus) | 27% | – | –
2 | EGIIVILVG (listed as Streptococcus thermophilus) | 86% | – | –
3 | EGIIVIVVG (listed as Streptococcus thermophilus) [SHP1358, mature small hydrophobic peptide of S. thermophilus LMD-9, inducer of Rgg1358] | – | much greater | restored
4 | ESIIVIAVG (listed as Streptococcus thermophilus) | 95% | – | –
